Values quoted from earlier work as cited in patent publication US20170246115A1, “MEDICINE” (KOWA COMPANY, LTD., priority 2012, published 2017).

Conditions: amorphous form formed on drying crystal form A at a water content of 4% or lower

storage stability: considerably poor storage stability
SMILES: O=C([O-])C[C@H](O)C[C@H](O)/C=C/c1c(C2CC2)nc2ccccc2c1-c1ccc(F)cc1.O=C([O-])C[C@H](O)C[C@H](O)/C=C/c1c(C2CC2)nc2ccccc2c1-c1ccc(F)cc1.[Ca+2] [amorphous pitavastatin calcium]
